Test results: paper PMC9374667 (Communications Biology, 2022)
≈ marks a conversion by molar mass, not a printed value. Where “and” joins values, the source holds several entries; their conditions need not be identical. Equal values may be shown once.

Columns and labels:
db/db mice [1] = experiment: Glucose tolerance test (GTT); assay type: in vivo; details: 150mg/kg
db/db mice [2] = experiment: Insulin tolerance test (ITT), AUC and initial slope; assay type: in vivo; details: db/db mice, IBU 150mg/kg
Method: (§1) Mice were fasted for 4 h for insulin resistance test and intraperitoneally injected with 1 unit/kg of insulin. Blood glucose levels were measured from the tail vein blood at 0, 15, 30, 45, 60, 90, and 120 min after injection. Plasma insulin levels were measured using an ultrasensitive mouse insulin ELISA kit (Nanjing Jiancheng Bioengineering Institute, Nanjing, China).

[3] = pH of the solution after 24 hours of the dissolution test; assay type: physicochemical
Method: Solubilities were determined by adding excess sample to 30 mL different mediums, such as HCl solution, acetate buffer, phosphate buffer, SGF, FaSSIF and FeSSIF. The configuration of various buffer solutions is shown in Supplementary Table 2. After being shaken at 400 rpm at 37 °C for 0.5, 1, 2, and 24 h, 0.3 mL of suspension was sampled and centrifuged at 14,000 rpm for 8 min to isolate mother liquor, and then analyzed by HPLC after dilution. All samples were analyzed in triplicate. […]
into a 1000 mL flask followed by addition of about 800 mL of deionized water. The mixture is stirred until all solids are dissolved.
Add about 100 mL of 0.1 N HCl, check pH value with a pH meter and adjust the pH to 2.0 with HCl (1 N) or NaOH (1 N). Then dilute to the volume with deionized water.
* 1N sodium hydroxide: Weigh 8 g NaOH in a 200 mL plastic volumetric flask, add deionized water to volume and mix well. […]
phosphate and 3.093 g sodium chloride in a 500 mL volumetric flask, add about 0.450 L deionized water, and adjust the pH to 6.5 with 1N sodium hydroxide or 1 N hydrochloric acid. Make up to volume (0.5 […]
Step 2: Place and dissolve 1.120 g FaSSIF/FeSSIF/FaSSGF instant powder with 0.250 L of buffer (from step 1) in a 500 mL volumetric flask, then add buffer (from step 1) to volume, and mix well. […]
g sodium chloride in a 500 mL volumetric flask, add about 0.450 L deionized water, and adjust the pH to 5.0 with 1 N sodium hydroxide or 1 N hydrochloric acid. Make up to volume (500 mL) with
Step 2: Place and dissolve 5.600 g FaSSIF/FeSSIF/FaSSGF instant […]
0.750 L deionized water. Make up to volume (1000 mL) with deionized water and placed overnight.
(1 picture or pasted object on this page, not shown here)

db/db mice [4] = experiment: Weekly fasting glucose levels of db/db mice; assay type: in vivo; details: 150mg/kg
Method: (§2) The lean wild type control and the db/db control mice were given equal vehicle volume (0.5% CMC-Na solution). All mice were monitored for food intake, body weight, and fasting blood glucose during the 35-day trial. Glucose tolerance test (GTT) and insulin resistance test (ITT) were performed at 4 and 5 weeks of treatment, respectively. Metabolic analysis was performed at 5 weeks of treatment. At the end of the study, blood samples were taken through the retroorbital venous sinus of mice, fat depots (brown fat, inguinal subcutaneous fat, epididymal fat, perirenal fat and mesenteric fat depot) were dissected, weighed, and immediately frozen in liquid nitrogen and stored at −80 °C until required. Weight of fat depots are expressed in percentage (fat depots weight /bodyweight * 100%).

db/db mice [5] = experiment: Fat depots weight (BAT, iWAT, eWAT; percentage of body weight); assay type: in vivo
Method: as §2

db/db mice [6] = experiment: Fasting serum insulin levels (ELISA); assay type: in vivo; details: 150mg/kg, individual animals
Method: as §1

[7] = In vitro dissolution studies: dynamic solubility in buffers and simulated biological fluids; assay type: physicochemical; parameters: BBR dissolved in CMC-Na (Figure S7a) / Ibu dissolved in CMC-Na (Figure S7b): unit not given here; details: mean; for solubility at 0.5 h / solubility at 1 h / solubility at 2 h / solubility at 24 h: 37 °C
Method: Solubilities were determined by adding excess sample to 30 mL different mediums, such as HCl solution, acetate buffer, phosphate buffer, SGF, FaSSIF and FeSSIF. The configuration of various buffer solutions is shown in Supplementary Table 2. After being shaken at 400 rpm at 37 °C for 0.5, 1, 2, and 24 h, 0.3 mL of suspension was sampled and centrifuged at 14,000 rpm for 8 min to isolate mother liquor, and then analyzed by HPLC after dilution. All samples were analyzed in triplicate.

[8] = aqueous buffer, thermodynamic from solid, Acetate buffer (pH 4.5)
[9] = fasted state simulated intestinal fluid (FaSSIF-V1), FaSSIF-V1 (pH 6.5)
[10] = fed state simulated intestinal fluid (FeSSIF-V1), thermodynamic from solid, FeSSIF-V1 (pH 5.0)
[11] = simulated gastric fluid (SGF), SGF (pH 2.0)

## CC(C)Cc1ccc(C(C)C(=O)O)cc1 (stereo not shown) [Ibu, Ibuprofen, reference compound]
db/db mice [1]; time 0, individual animals
  Blood Glucose (Figure S9p): 23.3 mmol/L and 18.9 mmol/L and 18.7 mmol/L and 22.0 mmol/L
db/db mice [1]; time 15, individual animals
  Blood Glucose (Figure S9p): 33.3 mmol/L
db/db mice [1]; time 30, individual animals
  Blood Glucose (Figure S9p): 33.3 mmol/L
db/db mice [1]; time 45, individual animals
  Blood Glucose (Figure S9p): 33.3 mmol/L
db/db mice [1]; time 60, individual animals
  Blood Glucose (Figure S9p): 33.3 mmol/L and 31.7 mmol/L and 32.4 mmol/L
db/db mice [1]; time 90, individual animals
  Blood Glucose (Figure S9p): 33.3 mmol/L and 29.2 mmol/L and 22.9 mmol/L
db/db mice [1]; time 120, individual animals
  Blood Glucose (Figure S9p): 30.3 mmol/L and 22.8 mmol/L and 23.9 mmol/L
db/db mice [2]; times 0, individual animals (Figure S9p/S9r)
  Blood Glucose: 22.4 mmol/L and 22.3 mmol/L and 22.8 mmol/L
db/db mice [2]; times 15, individual animals (Figure S9p/S9r)
  Blood Glucose: 24.0 mmol/L
db/db mice [2]; times 30, individual animals (Figure S9p/S9r)
  Blood Glucose: 19.6 mmol/L and 21.3 mmol/L and 20.3 mmol/L and 18.8 mmol/L
db/db mice [2]; times 45, individual animals (Figure S9p/S9r)
  Blood Glucose: 13.8 mmol/L and 18.5 mmol/L and 19.5 mmol/L and 17.5 mmol/L and 15.3 mmol/L and 15.6 mmol/L
db/db mice [2]; times 60, individual animals (Figure S9p/S9r)
  Blood Glucose: 15.0 mmol/L and 13.2 mmol/L and 20.4 mmol/L and 15.7 mmol/L
db/db mice [2]; times 90, individual animals (Figure S9p/S9r)
  Blood Glucose: 15.6 mmol/L and 21.3 mmol/L and 21.6 mmol/L and 14.9 mmol/L and 15.0 mmol/L
db/db mice [2]; times 120, individual animals (Figure S9p/S9r)
  Blood Glucose: 18.2 mmol/L and 22.9 mmol/L and 18.8 mmol/L and 16.9 mmol/L and 15.3 mmol/L
[3]; Acetate buffer, blank vehicle 4.54
  pH of the solution after 24 hours: 4.56
[3]; CMC-Na, blank vehicle 6.51
  pH of the solution after 24 hours: 5.57
[3]; FaSSIF-v1, blank vehicle 6.51
  pH of the solution after 24 hours: 6.04
[3]; FeSSIF-v1, blank vehicle 5.04
  pH of the solution after 24 hours: 5.05
[3]; HCl solution, blank vehicle 1.08
  pH of the solution after 24 hours: 1.07
[3]; Phosphate buffer, blank vehicle 6.84
  pH of the solution after 24 hours: 6.60
[3]; SGF, blank vehicle 2.03
  pH of the solution after 24 hours: 2.00
db/db mice [4]; week 0, individual animals
  Blood Glucose (Figure S9n): 16.0 mmol/L and 15.1 mmol/L and 15.0 mmol/L and 16.2 mmol/L and 11.3 mmol/L and 15.2 mmol/L
db/db mice [4]; week 1, individual animals
  Blood Glucose (Figure S9n): 16.3 mmol/L and 19.3 mmol/L and 21.7 mmol/L and 13.6 mmol/L and 13.3 mmol/L and 14.9 mmol/L
db/db mice [4]; week 2, individual animals
  Blood Glucose (Figure S9n): 20.7 mmol/L and 21.3 mmol/L and 19.0 mmol/L
db/db mice [4]; week 3, individual animals
  Blood Glucose (Figure S9n): 23.3 mmol/L and 18.9 mmol/L and 18.7 mmol/L and 22.0 mmol/L
db/db mice [4]; week 4, individual animals
  Blood Glucose (Figure S9n): 22.4 mmol/L and 22.3 mmol/L and 22.8 mmol/L
db/db mice [4]; week 5, individual animals
  Blood Glucose (Figure S9n): 23.6 mmol/L and 23.0 mmol/L
db/db mice [5]; 150mg/kg, individual animals
  Fat Depots Weight, BAT: 1.27 g and 2.12 g and 1.64 g and 1.62 g and 1.65 g and 1.78 g
  Fat Depots Weight, eWAT: 3.22 g and 3.09 g and 3.41 g and 3.43 g and 3.15 g and 3.78 g
  Fat Depots Weight, iWAT: 3.71 g and 3.4 g and 3.36 g and 4.03 g and 3.78 g and 4.01 g
  Fat depots weight / body weight: 19.7809% and 19.1502% and 20.6641% and 20.9797%
db/db mice [5]; db/db mice, BJ 75 and 150 mg/kg, BBR 150 mg/kg, Ibu 150 mg/kg
  Fat depots weight compared with vehicle: not significantly different
db/db mice [6]
  Insulin: 16.07 mIU/L and 14.41 mIU/L and 14.02 mIU/L and 15.71 mIU/L and 12.42 mIU/L and 14.35 mIU/L
[7]; Acetate buffer (pH 4.5)
  solubility at 0.5 h: 89.5 µg/mL (≈ 0.434 mM)
  solubility at 1 h: 103 µg/mL (≈ 0.497 mM)
[7]; time 0.5
  Ibu dissolved in CMC-Na (Figure S7b): 0.09941
[7]; time 1
  Ibu dissolved in CMC-Na (Figure S7b): 0.1517
[7]; time 24
  Ibu dissolved in CMC-Na (Figure S7b): 0.385
[7]; Phosphate buffer (pH 6.8)
  solubility at 0.5 h: 2650 µg/mL (≈ 12.9 mM)
  solubility at 1 h: 2680 µg/mL (≈ 13 mM)
[7]; [8]
  solubility at 2 h: 124 µg/mL (≈ 0.603 mM)
  solubility at 24 h: 125 µg/mL (≈ 0.605 mM)
[7]; aqueous buffer, thermodynamic from solid, Phosphate buffer (pH 6.8)
  solubility at 2 h: 2900 µg/mL (≈ 14.1 mM)
[7]; fasted state simulated intestinal fluid (FaSSIF-V1), thermodynamic from solid, FaSSIF-V1 (pH 6.5)
  solubility at 24 h: 1480 µg/mL (≈ 7.16 mM)
[7]; [9]
  solubility at 0.5 h: 1660 µg/mL (≈ 8.07 mM)
  solubility at 1 h: 1610 µg/mL (≈ 7.8 mM)
  solubility at 2 h: 1610 µg/mL (≈ 7.81 mM)
[7]; [10]
  solubility at 0.5 h: 798 µg/mL (≈ 3.87 mM)
  solubility at 1 h: 780 µg/mL (≈ 3.78 mM)
  solubility at 2 h: 890 µg/mL (≈ 4.31 mM)
  solubility at 24 h: 705 µg/mL (≈ 3.42 mM)
[7]; [11]
  solubility at 0.5 h: 51.9 µg/mL (≈ 0.252 mM)
  solubility at 1 h: 70.4 µg/mL (≈ 0.341 mM)
  solubility at 2 h: 77.3 µg/mL (≈ 0.375 mM)
  solubility at 24 h: 59.9 µg/mL (≈ 0.29 mM)
